Test results reported in US5096901A, “Pharmacologically active amides and esters containing an azabicycloalkane moiety” (John Wyeth & Brother Limited, priority 1989, dated 1992).

Target: T1, 5-HT3 receptors (Rattus norvegicus, UniProt P35563)
T1 sequence (P35563 24-483): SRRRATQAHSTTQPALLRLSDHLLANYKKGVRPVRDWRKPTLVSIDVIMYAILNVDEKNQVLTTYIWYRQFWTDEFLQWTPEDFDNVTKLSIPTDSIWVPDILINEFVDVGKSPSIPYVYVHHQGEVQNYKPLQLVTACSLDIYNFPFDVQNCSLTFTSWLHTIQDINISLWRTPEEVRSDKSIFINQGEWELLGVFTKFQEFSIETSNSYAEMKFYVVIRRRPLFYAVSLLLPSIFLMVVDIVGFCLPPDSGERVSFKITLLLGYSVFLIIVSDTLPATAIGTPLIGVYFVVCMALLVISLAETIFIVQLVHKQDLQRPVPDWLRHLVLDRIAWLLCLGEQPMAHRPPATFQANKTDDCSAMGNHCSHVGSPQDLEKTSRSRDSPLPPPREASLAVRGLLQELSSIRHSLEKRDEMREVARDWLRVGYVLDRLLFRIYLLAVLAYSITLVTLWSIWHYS
Method: The compounds of the invention are tested for 5-HT3 antagonistic activity in the rat vagus by the following procedure:
Segments of the vagus nerve from Sprague-Dawley rats were placed in a perspex chamber and perfused with Krebs solution. Electrodes, positioned at either end of the nerve segment, were used to record the potential differences which ensued upon the addition of various concentrations of 5-HT to one end of the nerve segment. Concentration-response curves to 5-HT were obtained in this manner prior to and following equilibration of the nerve segment with Krebs solution containing the test-substance.

## CN1[C@@H]2CC[C@H]1C[C@@H](NC(=O)c1cn(C)c3ccccc3c1=O)C2 [Example 1, (Endo)-N-(8-methyl-8-azabicyclo [3.2.1]octan-3-yl)-1,4-dihydro-1-methyl-4-oxoquinoline-3-carboxamide]
  Kb: 3.98 nM
